Tests used:
Format in all cases: biochemical
CK2(h) = CK2(h) (Homo sapiens, UniProt P68400); test: CK2(h) kinase assay; details: 3 μM; percent of control kinase activity
Procedure: (§1) Six compounds (presumptive single agents) were tested against a panel of 50 kinases. The results are presented in Table 2; numbers for each kinase indicate the percent of control kinase activity in the presence of a 3μM concentration of the indicated agent.
(§2) Agents that target two or more different kinases are useful in the methods of the invention as described elsewhere herein. Such compounds may be identified, and their effect on certain kinases may be identified, using the assays briefly described below in Examples 4-83. Each of these assays was carried out as described in Davies et al., Biochem. J., 351:95-105 (2000). All assays were carried out at 10 μM ATP unless otherwise noted.
In a final reaction volume of 25 μl, CK2(h) (5-10 mU) is incubated with 20 mM Hepes pH 7.6, 0.15 M NaCl, 0.1 mM EDTA, 5 mM DTT, 0.1% Triton X-100, 165 μM […] (SEQ ID NO:6), 10 mM MgAcetate and [γ-^33P-ATP] (specific activity approx. 500 cpm/pmol, concentration as required). The reaction is initiated by the addition of Mg^2+ [γ-^33P-ATP]. After incubation for 40 minutes at room temperature, the reaction is stopped by the addition of 5 μl of a 3% phosphoric acid solution. 10 μl of the reaction is then spotted onto a P30 filtermat and washed three times for 5 minutes in 75 mM phosphoric acid and once in methanol prior to drying and scintillation counting.

Yes(h) = Yes(h) (Homo sapiens, UniProt P07947); test: Yes(h) kinase assay; details: for Inhibitory activity (% of control), Yes(h): 3 μM, percent of control kinase activity
Chain of Yes(h) (P07947 whole entry): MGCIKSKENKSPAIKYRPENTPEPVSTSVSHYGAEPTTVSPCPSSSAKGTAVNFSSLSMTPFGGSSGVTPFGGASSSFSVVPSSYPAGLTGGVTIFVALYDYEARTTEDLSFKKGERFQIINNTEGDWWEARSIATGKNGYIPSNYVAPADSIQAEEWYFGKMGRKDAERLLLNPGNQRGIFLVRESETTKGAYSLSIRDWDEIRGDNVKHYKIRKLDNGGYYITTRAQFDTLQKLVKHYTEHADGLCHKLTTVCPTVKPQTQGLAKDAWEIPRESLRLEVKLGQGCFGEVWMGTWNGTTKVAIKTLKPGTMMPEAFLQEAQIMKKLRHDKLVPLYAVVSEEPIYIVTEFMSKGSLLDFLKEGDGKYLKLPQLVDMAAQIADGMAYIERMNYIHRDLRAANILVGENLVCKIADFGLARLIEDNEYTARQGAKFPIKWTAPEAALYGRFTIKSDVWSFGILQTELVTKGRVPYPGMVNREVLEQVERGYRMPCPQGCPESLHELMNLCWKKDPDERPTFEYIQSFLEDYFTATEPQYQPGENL
Procedure: as §1, §2
(§3) In a final reaction volume of 25 μl, Yes(h) (5-10 mU) is incubated with 8 mM MOPS pH 7.0, 0.2 mM EDTA, 0.1 mg/ml poly(Glu, Tyr) 4:1, 10 mM MgAcetate and [γ-^33P-ATP] (Specific activity approx. 500 cpm/pmol, concentration as required). The reaction is initiated by the addition of Mg^2+ [γ-^33P-ATP]. After incubation for 40 minutes at room temperature, the reaction is stopped by the addition of 5 μl of a 3% phosphoric acid solution. 10 μl of the reaction is then spotted onto a Filtermat A and washed three times for 5 minutes in 75 mM phosphoric acid and once in methanol prior to drying and scintillation counting.

CDK3/cyclinE(h) = CDK3/cyclinE(h) (Homo sapiens, UniProt Q00526); test: CDK3/cyclinE(h) kinase assay; details: 3 μM; percent of control kinase activity
Chain of CDK3/cyclinE(h) (Q00526 whole entry): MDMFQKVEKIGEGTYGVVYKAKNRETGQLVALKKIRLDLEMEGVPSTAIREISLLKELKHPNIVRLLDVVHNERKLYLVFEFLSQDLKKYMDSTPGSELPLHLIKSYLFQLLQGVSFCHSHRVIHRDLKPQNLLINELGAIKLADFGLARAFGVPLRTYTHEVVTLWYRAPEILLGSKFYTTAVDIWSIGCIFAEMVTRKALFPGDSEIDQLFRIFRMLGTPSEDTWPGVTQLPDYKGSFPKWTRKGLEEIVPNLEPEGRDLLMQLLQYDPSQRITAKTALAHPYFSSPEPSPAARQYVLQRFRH
Chain of CDK3/cyclinE(h) (P24864 whole entry partner): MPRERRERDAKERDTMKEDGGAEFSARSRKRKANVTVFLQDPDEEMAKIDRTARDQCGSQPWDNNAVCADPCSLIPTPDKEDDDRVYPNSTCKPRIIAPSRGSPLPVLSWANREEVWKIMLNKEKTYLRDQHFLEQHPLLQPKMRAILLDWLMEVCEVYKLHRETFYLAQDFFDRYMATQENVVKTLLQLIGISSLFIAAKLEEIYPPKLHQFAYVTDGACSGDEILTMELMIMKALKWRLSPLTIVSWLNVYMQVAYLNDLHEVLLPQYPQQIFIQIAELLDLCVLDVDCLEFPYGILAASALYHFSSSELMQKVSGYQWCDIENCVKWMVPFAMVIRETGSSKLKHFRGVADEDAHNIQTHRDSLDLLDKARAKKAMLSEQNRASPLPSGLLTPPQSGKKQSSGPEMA
Procedure: as §1, §2
as §3, with “CDK3/cyclinE (h)” for “Yes(h)”, “histone H1,” for “poly(Glu, Tyr) 4:1,”, “(specific” for “(Specific”, “P30 filtermat” for “Filtermat A”

ZAP-70(h) = target: T1, ZAP-70(h) (Homo sapiens, UniProt P43403); test: ZAP-70(h) kinase assay; details: 3 μM; percent of control kinase activity
T1 sequence (P43403 1-619): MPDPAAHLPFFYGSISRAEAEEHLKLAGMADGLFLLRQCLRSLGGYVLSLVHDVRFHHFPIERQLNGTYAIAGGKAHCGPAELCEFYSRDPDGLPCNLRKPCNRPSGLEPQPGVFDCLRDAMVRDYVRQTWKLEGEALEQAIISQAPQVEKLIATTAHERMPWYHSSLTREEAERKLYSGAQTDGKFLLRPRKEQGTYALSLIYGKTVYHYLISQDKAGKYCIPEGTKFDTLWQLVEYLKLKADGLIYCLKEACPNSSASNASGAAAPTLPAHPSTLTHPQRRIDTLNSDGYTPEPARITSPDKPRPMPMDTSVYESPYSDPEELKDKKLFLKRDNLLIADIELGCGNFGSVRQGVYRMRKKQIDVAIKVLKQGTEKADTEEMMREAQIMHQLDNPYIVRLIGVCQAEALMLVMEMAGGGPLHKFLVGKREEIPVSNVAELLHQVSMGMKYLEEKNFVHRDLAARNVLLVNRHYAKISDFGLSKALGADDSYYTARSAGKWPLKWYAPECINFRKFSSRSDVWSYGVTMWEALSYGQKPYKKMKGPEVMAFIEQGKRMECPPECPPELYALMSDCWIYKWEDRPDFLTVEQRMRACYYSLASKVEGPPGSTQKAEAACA
Procedure: as §1, §2
as §3, with “ZAP-70 (h)” for “Yes(h)”, “50” for “8”, “Tris” for “MOPS”, “7.5, 0.1” for “7.0, 0.2”, “EGTA, 0.1 mM NaVanadate, 0.1% β-mercaptoethanol,” for “EDTA,”, “4:1, 10 mM MnCl2,” for “4:1,”

GSK3α(h) = GSK3α(h) (Homo sapiens, UniProt P49840); test: GSK3α(h) kinase assay; details: 3 μM; percent of control kinase activity
Chain of GSK3α(h) (P49840 whole entry): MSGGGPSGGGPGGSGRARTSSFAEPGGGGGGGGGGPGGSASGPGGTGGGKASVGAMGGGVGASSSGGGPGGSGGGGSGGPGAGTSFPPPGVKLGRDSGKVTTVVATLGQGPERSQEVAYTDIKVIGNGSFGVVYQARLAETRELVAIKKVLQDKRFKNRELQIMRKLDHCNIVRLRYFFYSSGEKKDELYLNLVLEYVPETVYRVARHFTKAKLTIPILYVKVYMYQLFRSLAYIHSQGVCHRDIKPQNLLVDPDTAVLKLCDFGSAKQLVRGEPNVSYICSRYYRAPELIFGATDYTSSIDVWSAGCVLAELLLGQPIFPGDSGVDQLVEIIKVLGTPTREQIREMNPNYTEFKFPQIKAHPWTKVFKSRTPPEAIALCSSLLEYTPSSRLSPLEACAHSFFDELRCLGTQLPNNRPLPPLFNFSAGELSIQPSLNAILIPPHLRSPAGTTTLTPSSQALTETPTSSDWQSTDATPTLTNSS
Procedure: as §1, §2

MAPK2(h) = MAPK2(h) (Homo sapiens, UniProt P28482); test: MAPK2(h) kinase assay; details: 3 μM; percent of control kinase activity
Chain of MAPK2(h) (P28482 whole entry): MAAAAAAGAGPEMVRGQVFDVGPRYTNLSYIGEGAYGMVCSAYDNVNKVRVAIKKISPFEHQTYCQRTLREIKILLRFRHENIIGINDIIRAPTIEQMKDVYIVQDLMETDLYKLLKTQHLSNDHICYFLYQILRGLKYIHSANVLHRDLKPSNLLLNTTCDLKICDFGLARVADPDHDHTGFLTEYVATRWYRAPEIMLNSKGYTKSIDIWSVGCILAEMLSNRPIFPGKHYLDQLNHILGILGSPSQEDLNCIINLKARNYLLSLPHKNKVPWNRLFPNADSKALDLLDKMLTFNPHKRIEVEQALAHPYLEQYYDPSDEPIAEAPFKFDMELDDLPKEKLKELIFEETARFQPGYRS
Procedure: as §1, §2
In a final reaction volume of 25 μl, MAPK2(h) (5-10 mU) is incubated with 25 mM Tris pH 7.5, 0.02 mM EGTA, 0.33 mg/ml myelin basic protein, 10 mM MgAcetate and [γ-^33P-ATP] (specific activity approx. 500 cpm/pmol, concentration as required). The reaction is initiated by the addition of Mg^2+ [γ-^33P-ATP]. After incubation for 40 minutes at room temperature, the reaction is stopped by the addition of 5 μl of a 3% phosphoric acid solution. 10 μl of the reaction is then spotted onto a P30 filtermat and washed three times for 5 minutes in 75 mM phosphoric acid and once in methanol prior to drying and scintillation counting.

Lyn(h) = Lyn(h) (Homo sapiens, UniProt P07948); test: Lyn(h) kinase assay; details: 3 μM; percent of control kinase activity
Chain of Lyn(h) (P07948 2-512 limits assumed): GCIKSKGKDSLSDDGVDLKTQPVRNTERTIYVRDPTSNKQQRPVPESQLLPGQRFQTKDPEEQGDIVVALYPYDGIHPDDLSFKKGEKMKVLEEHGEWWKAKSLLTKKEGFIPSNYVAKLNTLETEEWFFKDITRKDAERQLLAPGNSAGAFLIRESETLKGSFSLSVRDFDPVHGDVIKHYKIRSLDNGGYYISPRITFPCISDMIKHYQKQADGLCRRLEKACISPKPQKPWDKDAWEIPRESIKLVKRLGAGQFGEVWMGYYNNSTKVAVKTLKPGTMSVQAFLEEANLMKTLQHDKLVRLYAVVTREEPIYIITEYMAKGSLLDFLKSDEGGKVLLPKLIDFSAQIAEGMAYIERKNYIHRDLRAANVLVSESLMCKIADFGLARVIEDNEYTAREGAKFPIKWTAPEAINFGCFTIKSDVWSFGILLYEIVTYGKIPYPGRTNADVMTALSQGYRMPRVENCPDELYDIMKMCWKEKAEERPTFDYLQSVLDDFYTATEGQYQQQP

Chain of CK2(h) (P68400 whole entry): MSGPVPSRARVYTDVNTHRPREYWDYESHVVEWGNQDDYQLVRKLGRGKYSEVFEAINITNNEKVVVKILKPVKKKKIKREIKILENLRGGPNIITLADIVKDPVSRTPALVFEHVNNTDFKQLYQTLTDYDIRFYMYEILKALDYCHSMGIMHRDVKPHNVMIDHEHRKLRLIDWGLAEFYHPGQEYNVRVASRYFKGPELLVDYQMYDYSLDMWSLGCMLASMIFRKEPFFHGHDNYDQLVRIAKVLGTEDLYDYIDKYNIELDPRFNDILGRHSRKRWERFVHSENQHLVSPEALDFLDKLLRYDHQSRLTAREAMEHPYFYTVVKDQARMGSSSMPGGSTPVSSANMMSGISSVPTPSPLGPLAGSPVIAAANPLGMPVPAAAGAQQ
Chain of CK2(h) (P67870 whole entry partner): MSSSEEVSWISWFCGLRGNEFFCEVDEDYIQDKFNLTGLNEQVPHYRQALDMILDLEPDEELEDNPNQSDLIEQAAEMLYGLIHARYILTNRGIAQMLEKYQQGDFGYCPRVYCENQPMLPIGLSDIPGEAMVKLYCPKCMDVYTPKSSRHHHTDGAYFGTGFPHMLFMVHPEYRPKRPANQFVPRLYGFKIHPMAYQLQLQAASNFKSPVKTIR

| SMILES | Inhibitory activity (% of control), CK2(h) (CK2(h)) | Inhibitory activity (% of control), Yes(h) (Yes(h)) | Inhibitory activity (% of control), CDK3/cyclinE(h) (CDK3/cyclinE(h)) | Inhibitory activity (% of control), ZAP-70(h) (ZAP-70(h)) | Inhibitory activity (% of control), GSK3α(h) (GSK3α(h)) | Inhibitory activity (% of control), MAPK2(h) (MAPK2(h)) | Inhibitory activity (% of control), Lyn(h) (Lyn(h)) | inhibitory activity against Yes, in words (Yes(h); summary of Table 2) |
| --- | --- | --- | --- | --- | --- | --- | --- | --- |
| CC(C)Cc1nc(-c2ccc3[nH]nc(-c4ccc5cc(OCCN6CCCC6)ccc5c4)c3c2)n[nH]1 [CC002, 5-(5-Isobutyl-1H-[1,2,4]Triazol-3-yl)-3-[6-(2-Pyrrolidin-1-yl-Ethoxy)-Naphthalen-2-yl]-1H-Indazole] | 41 % of control | −3 % of control | 36 % of control | 40 % of control | 38 % of control | 2 % of control | 2 % of control | – |
| CCN1CCC[C@H]1COc1ccc2cc(-c3n[nH]c4ccc(-c5nc(CC(C)(C)C)n[nH]5)cc34)ccc2c1 [CC005, 2-[((2s)-1-ethylpyrrolidin-2-yl)methoxy]-6-{5-[3-(2,2-Dimethylpropyl)(1H-1,2,4,-triazol-5-yl)](1H-indazol-3-yl)}naphthalene] | 74 % of control | 0 % of control | 25 % of control | 26 % of control | 35 % of control | 2 % of control | 2 % of control | – |
| Fc1ccc(-c2n[nH]c3ccc(-c4n[nH]c(C5CCCC5)n4)cc23)cc1 [CC006, 5-(5-Cyclopentyl-1H-[1,2,4]triazol-3-yl)-3-(4-fluoro-phenyl)-1H-indazole, reference compound] | 50 % of control | 57 % of control | 15 % of control | 77 % of control | 38 % of control | 3 % of control | 23 % of control | – |
| COc1ccc2cc(-c3n[nH]c4ccc(-c5n[nH]c(CN6CCOCC6)n5)cc34)ccc2c1 [CC001, 3-(6-Methoxynaphthalen-2-yl)-5-(5-Morpholin-4-Ylmethyl-1H-[1,2,4]Triazol-3-yl)-1H-Indazole] | 45 % of control | 2 % of control | 31 % of control | 105 % of control | 15 % of control | 0 % of control | 5 % of control | – |
| CC(C)(C)Cc1nc(-c2ccc3[nH]nc(-c4ccc5cc(OCc6ccccn6)ccc5c4)c3c2)n[nH]1 [CC004, 5-[5-(2,2-Dimethyl-propyl)-1H-[1,2,4]triazol-3-yl]-3-[6-(pyridine-2-ylmethoxy)-naphthalen-2-yl]-1H-indazole] | 98 % of control | 24 % of control | 39 % of control | 68 % of control | 65 % of control | 1 % of control | 62 % of control | somewhat less inhibitory activity |
| O=C(NC1CCCC1)c1cccc(-c2n[nH]c3ccc(-c4nc[nH]n4)cc23)c1 [CC007, 3-(5-(1H-1,2,4-triazol-3-yl)(1H-indazol-3-yl))phenyl-N-cyclopentylcarboxamide, reference compound] | 27 % of control | 50 % of control | 73 % of control | 87 % of control | 18 % of control | 3 % of control | 61 % of control | – |
